In assay [1] the test system is HCT116 MTAP+/+. Nature of the assay: Inhibition of cellular proliferation (Cell Titer Glo), HCT116 MTAP+/+. The conditions noted are these: Homo sapiens, HCT-116, 96 h, Table 5a, 4 days, read-out: 4 Day Relative Growth Inhibition (MTAP +/+). It is filed as cell-based. An outline of the steps:
(§1)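 Isogenic HCT116 MTAP+/+ and MTAP−/− cells were plated, treated with MAT2A inhibitor after 24 h, and incubated 4 days at 37 °C. Proliferation was read by CellTiter-Glo ATP luminescence, blank-subtracted and normalized to 0.2% DMSO control.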
For orientation: In ATP-based viability assays light output follows the ATP content of the culture.

For assay [2], the system named is SAM in HCT116 MTAP-deleted cells. Briefly: Cellular assay of target engagement (SAM), LC-MS/MS. The conditions noted are these: Homo sapiens, HCT-116, Table 5a, 72 h, read-out: Cell 72 h SAM Inhibition (MTAP −/−). It is filed as cell-based, human. In a few lines: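 HCT116 cells with MTAP deleted were treated with compound for 72 h at 37°C/5% CO2. After quenching lysis in cold 80% methanol with 1 M acetic acid, SAM was quantified by LC-MS/MS against a d3-SAM internal standard.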

The subject of assay [3] is HCT116 MTAP-/-. Briefly: Inhibition of cellular proliferation (Cell Titer Glo), HCT116 MTAP-/-. It is filed as cell-based, human. Particulars: Homo sapiens, HCT-116, 96 h, Table 5a, 4 days, read-out: 4 Day Relative Growth Inhibition (MTAP −/−). In a few lines:
as §1

The target of assay [4] is T1, MAT2A homodimer (Homo sapiens, UniProt P31153).
T1 construct: inferred from the Ni sepharose purification and imidazole elution; made in house; host or cells: SF9 insect cells, recombinant baculovirus (Bac to Bac, pFASTBAC1)
T1 sequence (P31153 whole entry): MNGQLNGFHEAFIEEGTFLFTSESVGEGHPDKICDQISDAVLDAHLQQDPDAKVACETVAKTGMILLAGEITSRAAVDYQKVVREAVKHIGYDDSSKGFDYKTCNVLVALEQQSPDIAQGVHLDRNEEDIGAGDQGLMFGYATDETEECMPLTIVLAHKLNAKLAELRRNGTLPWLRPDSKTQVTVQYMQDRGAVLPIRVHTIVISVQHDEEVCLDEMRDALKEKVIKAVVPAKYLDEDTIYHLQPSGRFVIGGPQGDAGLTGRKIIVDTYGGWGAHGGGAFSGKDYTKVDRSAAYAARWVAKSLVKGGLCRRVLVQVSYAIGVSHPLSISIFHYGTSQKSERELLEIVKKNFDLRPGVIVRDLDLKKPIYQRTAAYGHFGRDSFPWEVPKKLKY
Briefly: MAT2A biochemical assay (liberated phosphate, PiColorLock Gold). The conditions noted are these: Table 5a; MAT2A biochemical assay; read-out: Enzyme Inhibition. In a few lines:
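Baculovirus/Sf9-expressed, Ni-purified MAT2A homodimer preincubated with compound 60 min at 25 °C, then reacted 60 min at 25 °C with substrate mix of 500 μM ATP and 400 μM L-methionine, pH 7.0 (mix, not final levels). Phosphate released with SAM measured by PiColorLock Gold against phosphate standard curve.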

`[2H]C([2H])([2H])Oc1ccc(N2C(=O)N(c3ccc4nn(C([2H])([2H])[2H])cc4c3)Cc3cnc(NCC(F)(F)F)nc32)cc1` [Example 423, 1-(4-(methoxy-d3)phenyl)-3-(2-(methyl-d3)-2H-indazol-5-yl)-7-((2,2,2-trifluoroethyl)amino)-3,4-dihydropyrimido[4,5-d]pyrimidin2(1H)-one]: the IC50 is greater than 1000 nM in assay [1], less than 100 nM in assay [2], less than 100 nM in assay [3] and less than 100 nM in assay [4].
Take `Cc1nc2ccc(N3Cc4cnc(NCC(F)(F)F)nc4N(c4ccc(OC(F)F)cc4)C3=O)cc2n1C` [Example 424]: the IC50 in assay [1] is greater than 1000 nM; in assay [2] it was less than 100 nM; in assay [3], 100 to 1000 nM; in assay [4] it was less than 100 nM.
Take `Cn1cc2cc(N3Cc4cnc(NCC(F)(F)F)nc4N(c4ccc(Br)cc4)C3=O)ccc2n1` [Example 425, 1-(4-bromophenyl)-3-(2-methyl-2H-indazol-5-yl)-7-((2,2,2-trifluoroethyl)amino)-3,4-dihydropyrimido[4,5-d]pyrimidin-2(1H)-one]: the IC50 in assay [1] was greater than 1000 nM; in assay [2], less than 100 nM; in assay [3], less than 100 nM; in assay [4] it was less than 100 nM.
For the compound `Cn1cc2cc(N3Cc4ncc(NCC(F)(F)F)cc4N(c4ccc(OC(F)F)cc4)C3=O)ccc2n1` [Example 428, 1-(4-(difluoromethoxy)phenyl)-3-(2-methyl-2H-indazol-5-yl)-7-((2,2,2-trifluoroethyl)amino)-3,4-dihydropyrido[3,2-d]pyrimidin-2(1H)-one], the IC50 is greater than 1000 nM in assay [1], less than 100 nM in assay [2], less than 100 nM in assay [3] and less than 100 nM in assay [4].
Take `CO[C@H]1CC[C@H](N2C(=O)N(c3ccc4nn(C)cc4c3)Cc3ccc(OCC(F)F)nc32)CC1` [Example 429, 7-(2,2-difluoroethoxy)-1-(trans-4-methoxycyclohexyl)-3-(2-methyl-2H-indazol-5-yl)-3,4-dihydropyrido[2,3-d]pyrimidin-2(1H)-one]: the IC50 in assay [1] is greater than 1000 nM; in assay [2] it was 100 to 1000 nM; in assay [3] it was 100 to 1000 nM; in assay [4], less than 100 nM.
For the compound `[2H]C([2H])([2H])Oc1ccc(N2C(=O)N(c3ccc4nn(C)cc4c3)Cc3c(N)nc(NCC(F)(F)F)nc32)cc1` [Example 430, 5-amino-1-(4-(methoxy-d3)phenyl)-3-(2-methyl-2H-indazol-5-yl)-7-((2,2,2-trifluoroethyl)amino)-3,4-dihydropyrimido[4,5-d]pyrimidin-2(1H)-one], the IC50 is greater than 1000 nM in assay [1], less than 100 nM in assay [2], less than 100 nM in assay [3] and less than 100 nM in assay [4].
As to `[2H]C([2H])([2H])Oc1ccc(N2C(=O)N(c3ccc4nc(OC)n(C)c4c3)Cc3ccc(OCC(F)F)nc32)cc1` [Example 431, 7-(2,2-difluoroethoxy)-3-(2-methoxy-1-methyl-1H-benzo[d]imidazol-6-yl)-1-(4-(methoxy-d3)phenyl)-3,4-dihydropyrido[2,3-d]pyrimidin-2(1H)-one], the IC50 in assay [1] was greater than 1000 nM; in assay [2] it was less than 100 nM; in assay [3], 100 to 1000 nM; in assay [4], less than 100 nM.
Take `[2H]C([2H])([2H])Oc1ccc(N2C(=O)N(c3ccc4nn(C)cc4c3)Cc3c(NC)nc(NCC(F)(F)F)nc32)cc1` [Example 432, 1-(4-(methoxy-d3)phenyl)-3-(2-methyl-2H-indazol-5-yl)-5-(methylamino)-7-((2,2,2-trifluoroethyl)amino)-3,4-dihydropyrimido[4,5-d]pyrimidin-2(1H)-one]: the IC50 in assay [1] is greater than 1000 nM; in assay [2], less than 100 nM; in assay [3], less than 100 nM; in assay [4], less than 100 nM.
As to `[2H]C([2H])([2H])Oc1ccc(N2C(=O)N(c3ccc4nc(C)n(C)c4c3)Cc3ccc(OC(C)C)nc32)cc1` [Example 434, 3-(1,2-dimethyl-1H-benzo[d]imidazol-6-yl)-7-isopropoxy-1-(4-(methoxy-d3)phenyl)-3,4-dihydropyrido[2,3-d]pyrimidin-2(1H)-one], the IC50 in assay [1] was 100 to 1000 nM; in assay [2], less than 100 nM; in assay [3] it was less than 100 nM; in assay [4] it was less than 100 nM.

Source of the values: US20220098203A1 (priority 2018, published 2022).
